Assays:
[1] = tested on: db/db diabetes model mouse; test: Intraperitoneal glucose tolerance test (IPGTT) in diabetes model mice; format: in vivo
Procedure: Effect on glucose tolerance by nepodin administration was measured by using blood glucose level change after the intraperitoneal administration of nepodin to the diabetes model mice.
Intraperitoneal glucose tolerance test (IPGTT) was performed on the sixth week after nepodin administration start. At first, the mice of each group were fasted for 16 hours, and then, glucose was intraperitoneally administrated to each mouse at the dose of 2 g/kg.
Blood samples were obtained from the tail vain of each mouse at the time point of 0 min., 30 min., 60 min., 90 min., 120 min., and 180 min. after the glucose administration. Blood glucose level was determined by using Glucose CII Test Wako (Wako Pure Chemical Industries, Ltd.)

L6 myotube cells = test: Glucose intake by L6 myotube cells (decrease of glucose in culture solution); format: cell-based, rat; settings: nepodin 10 to 40 μM, 4 hours, versus medium without nepodin
Procedure: L6 myoblast cells were suspended at concentration of 12.5×10^4 cells/mL in a D-MEM medium with 5.5 mM of glucose concentration to which 10% v/v fetal bovine serum, 100 μg/mL of streptomycin, and 100 U/mL of penicillin G were added.
The cells were inoculated at the concentration 5×10^4 cells/well (0.4 mL/well) in 24 well multi-plate (NUNC Co., Inc.); then cultured in a 5% CO2 incubator at 37° C. for 11 days. The medium was exchanged every 3 days.
After 11 days, the culture medium was replaced with filter sterilized Krebs solution (Krebs-Henseleit buffer; pH 7.4, 141 mg/L of MgSO4, […] of KH2PO4, 350 mg/L of KCL, 6,900 mg/L of NaCl, 373 mg/L of CaCl2.2H2O, and 2,100 mg/L of NaHCO3) (KHH buffer) supplemented with 0.1% bovine serum albumin, 10 mM of Hepes, and […] of pyruvate sodium but without glucose to maintain the cells in the 5% CO2 incubator at 37° C. for 2 hours.
Next, each KHH buffer was prepared: only 11 mM glucose was added, or 11 mM of glucose and nepodin (10 μM, 20 μM, or 40 μM). […]
Glucose concentrations in the culture solution at the beginning and after 4 hours from the culture start were determined by using a microplate reader (Beckman Coulter, Inc. AD200) and a glucose determination kit (Glucose CII test Wako (Wako Pure Chemical Industries, Ltd.), Catalog number 439-90901). […]

[2] = tested on: db/db diabetes model mouse; test: Serum TBARS value (anti-oxidizing action) in diabetes model mice; format: in vivo; settings: groups A and B versus group C
Procedure: (§1) After the termination of the experiment shown in EXAMPLE 4, the blood samples were obtained from the abdominal aorta of the mice from each group under anesthesia, and they were centrifuged with 1,000×g at room temperature to obtain serum samples. After that, the mice of each group were killed by cervical dislocation to put out of the misery; then organs were excised to use the following experiments.
TBARS value, an index for anti-oxidizing action, was determined by using a TBARS Assay Kit (ZeptoMetrix Co., Inc.).

[3] = tested on: AMPK (5′ adenosine monophosphate-activated protein kinase); test: Phosphorylated AMPK in L6 myotube cells by western blotting; format: cell-based, rat; settings: nepodin 30 μM, up to 120 minutes
Procedure: The effect of nepodin administration was decided by determining the amount of a phospholylated AMPK (5′ adenosine monophosphate-activated protein kinase), which was important for glucose metabolism in L6 myotube cells, as an activation index.
L6 myoblast cells were suspended in D-MEM (5.5 mM of glucose concentration) supplemented with 10% v/v fetal bovine serum, 100 μg/mL of streptomycin, and 100 U/mL of penicillin G so as to become the cell concentration at 12.5×10^4 cells/well.
L6 myoblast cells were inoculated into a 6 cm diameter dish (FALCON Co., Inc.) (2 mL/well) so as to become the concentration at 5×10^5 cells/well, and cultured in the 5% CO2 incubator at 37° C. for 11 days. The medium was exchanged every 3 days. […]
The negative control samples were prepared by using the cytolytic buffer to be added to the cells cultured with the medium including DMSO, the solvent of nepodin, at the same amount as nepodin. The negative control sample and the samples were separated by using SDS-PAGE according to the conventional method, and were analyzed by using anti-phosphorylated AMPK antibody and anti-AMPK antibody by the western blotting.

[4] = tested on: db/db diabetes model mouse; test: HOMA-IR insulin resistance index in diabetes model mice; format: in vivo; settings: groups A and B (2 and 10 mg/kg/day) versus group C
Procedure: as §1
Serum insulin level of Lewi's insulin-mouse-T (Shibayagi Co., Ltd.) was determined by ELISA (measurement at the wavelengths of 450 nm and 620 nm), according to protocols written in its package insert.
HOMA-IR (Homeostasis model assessment-Insulin Resistance), which is an index of the insulin resistance, was calculated based on data on both blood glucose and serum insulin, by using following equation. HOMA-IR=(blood glucose×insulin level)/405 (1)
HOMA-IR values were obtained from both levels of serum blood glucose and serum insulin of the mice in group N (the normal mice), the administration groups A, B, and C. They were used to investigate for the change of the insulin resistant index.

[5] = tested on: db/db diabetes model mouse; test: Liver and serum neutral lipid and cholesterol levels in diabetes model mice; format: in vivo
Excerpt: as §1
Livers from the mice of each group were homogenized and total lipid was extracted by using Folch method. Both amounts of neutral lipid and cholesterol in the liver were determined by using LabAssat Tiglyceride (Wako Pure Chemical Industries, Ltd.) and LabAssay Cholesterol (Wako Pure Chemical Industries, Ltd.) Results are shown in FIGS. 7A and 7B.
The serum neutral lipid (triglyceride) level was determined by using LabAssay Triglyceride (Wako Pure Chemical Industries, Ltd.). The serum cholesterol level was determined by using LabAssay Cholesterol (Wako Pure Chemical Industries, Ltd.).

[6] = tested on: db/db diabetes model mouse; test: Fasting blood glucose of diabetes model mice; format: in vivo; settings: 4 hour fasting, 2 to 4 weeks after administration start, versus no nepodin
Procedure: Effect of nepodin was evaluated by using fasting blood glucose of model mice (db/db mouse) having diabetes II as an index.
Nepodin was suspended in 0.5% carboxymethylcellulose aqueous solution (Wako Pure Chemical Industries, Ltd.). Male mice of 5 week old, BKS. Cg-+Lerp^db/+Lerp^db/J mouse (db/db diabetes model mouse, hereinafter, it is referred to as “diabetes model mouse”) for a test group (nepodin administration group) were purchased from Charles River Laboratories Japan Inc. Prior to the test, they were maintained for 1 week under the condition of 12 h light/12 h dark at a room temperature approximately 25° C., feeding normal diet. It is considered that db/db mouse also becomes a model for a metabolic syndrome model, because it is obese and has higher levels of variety of lipid.
Heterozygous male mice of 5 week old, BKS. Cg-+Dock 7^m/+Lerp^db/J mouse (normal mouse) for a negative control group (without nepodin administration) were purchased from Charles River Japan Inc. Prior to the test, they were maintained as the same condition as those of the test group. […]
Blood samples were obtained from the tail vein of the mice after 4 hour fasting per week. The blood glucose level was measured by using Glucose CII test Wako (Wako Pure Chemical Industries, Ltd.)

[7] = Feed intake and body weight gain of diabetes model mice; format: in vivo, mouse; settings: for Weight gain / Feed intake: diabetes mice
Procedure: Nepodin was suspended in 0.5% carboxymethylcellulose aqueous solution (Wako Pure Chemical Industries, Ltd.). Male mice of 5 week old, BKS. Cg-+Lerp^db/+Lerp^db/J mouse (db/db diabetes model mouse, hereinafter, it is referred to as “diabetes model mouse”) for a test group (nepodin administration group) were purchased from Charles River Laboratories Japan Inc. Prior to the test, they were maintained for 1 week under the condition of 12 h light/12 h dark at a room temperature approximately 25° C., feeding normal diet. It is considered that db/db mouse also becomes a model for a metabolic syndrome model, because it is obese and has higher levels of variety of lipid. The test group mice were divided into 3 groups: C group (positive control group; n=10) with no nepodin administration; A group (n=6) to which nepodin was administered at the dose of 2 mg/kg/day or 10 mg/kg/day for 5 weeks; and B group (n=6). 0.5% carboxymethylcellulose aqueous solution without nepodin was administered to the negative control group (N group; n=6) and the positive control group (C group) under the same conditions as described above. Feeds and water are freely given to each group.

[8] = nepodin administration groups versus diabetes model group with no administration

**Q.** Which “area under the curve (AUC) of blood glucose levels” value ([1]; B group (10 mg/kg), AUC of C group = 100%, p<0.01) does the source give for `CC(=O)c1c(C)cc2cccc(O)c2c1O` [nepodin, 2-Acetyl-1,8-dihydroxy-3-methyl-napthalene] here?
**A.** Its value is “significantly low”.

**Q.** What about the “increase of the blood glucose level after glucose load” value ([1]; B group, 10 mg/kg nepodin, sixth week, glucose 2 g/kg i.p. after 16 hours fasting) of the same compound?
**A.** The value was “significantly suppressed”.

**Q.** And the “glucose intake by L6 myotube cells” value (L6 myotube cells)?
**A.** The value was “dose-dependently improved”.

**Q.** What about the “serum TBARS value” [2] of the same compound?
**A.** Its value is “significantly lower”.

**Q.** And the “Phosphorylated AMPK in L6 myotube cells” value [3]?
**A.** Its value is “increased”.

**Q.** And the HOMA-IR [4]?
**A.** Its HOMA-IR is “significantly lower”.

**Q.** What about the “cholesterol level in the liver” value ([5]; groups A and B versus group C) of the same compound?
**A.** The value was “significantly lower”.

**Q.** And the “neutral lipid level in the liver” value ([5]; groups A and B versus group C)?
**A.** Its value is “significantly lower”.

**Q.** What about the serum cholesterol level [5, 8] of the same compound?
**A.** The serum cholesterol level was “significantly lower”.

**Q.** And the “serum neutral lipid (triglyceride) level” value [5, 8]?
**A.** Its value is “significantly lower”.

**Q.** What about the “fasting blood glucose level” value [6] of the same compound?
**A.** Its value is “significantly lower”.

**Q.** What about the Weight gain ([7]; group A, nepodin 2 mg/kg/day) of the same compound?
**A.** Its Weight gain is 18.7 ± 1.76 g/5 weeks.

**Q.** And the Feed intake ([7]; group A, nepodin 2 mg/kg/day for 5 weeks)?
**A.** The Feed intake was 5.26 ± 0.61 g/day.

**Q.** What about the Weight gain ([7]; group B, nepodin 10 mg/kg/day) of the same compound?
**A.** Its Weight gain is 19.45 ± 2.68 g/5 weeks.

**Q.** What about the Feed intake ([7]; group B, nepodin 10 mg/kg/day for 5 weeks) of the same compound?
**A.** Its Feed intake is 5.40 ± 0.50 g/day.

**Q.** And the “average amount of feed intake and body weight gain versus C group” value ([7]; diabetes model mice, A group and B group (2 or 10 mg/kg/day) versus no nepodin)?
**A.** Its value is “no significant difference”.

Reference: patent publication US8692023B2, “Sugar metabolism improving composition, and pharmaceutical preparation containing said composition” (Erina Co., Inc., priority 2010, dated 2014)
